Experimental data reported in patent US20230027066A1 (Urovant Sciences GmbH, priority 2019, published 2023).

Tested on: men and women with overactive bladder
Assay: Phase 3 study of vibegron 75 mg vs placebo and tolterodine ER 4 mg, 12 weeks, efficacy (voiding and urine volume diary)
Assay type: in vivo, human
Details: for Daily Urgency Episodes: Reduction from Baseline at Week 12, LS Mean: vibegron 75 mg, tolterodine ER 4 mg; for Patients with 100% Reduction in UUI from Baseline to Week 12, Unadjusted n (%) / Patients with at Least 75% Reduction in UUI from Baseline to Week 12, Unadjusted n (%) / Patients with 100% Reduction in UUI from Baseline to Week 12, Adjusted n (%) / Patients with at Least 75% Reduction in UUI from Baseline to Week 12, Adjusted n (%): FAS-I; for Patients with 100% Reduction in UUI from Baseline to Week 12, Adjusted n (%) / Patients with at Least 75% Reduction in UUI from Baseline to Week 12, Adjusted n (%): MI for missing values; for 75% UUI responders, Active-Placebo CMH Difference / 100% UUI responders, Active-Placebo CMH Difference: stratified by sex; for Urgency, Change from Baseline LS Mean / Urgency, LS Mean Difference active - Placebo: baseline to Week 12
Protocol: Enrollment of patients included individuals with OAB Wet (those with UUI, the involuntary loss of urine accompanied by urgency) and OAB Dry (those without UUI). A total of 1,518 patients were randomized across 215 study sites into one of three groups for a 12-week treatment period.
The study consisted of a Screening Period (1 to 5 weeks), a single-blind Run-in Period (2 weeks), a randomized double-blind Treatment Period (12 weeks), and a Follow-up Period (4 weeks).
Tolterodine ER 4 mg was the active control. […] Between the Baseline and Week 12 Visits, patients had study assessments at Week 4 and Week 8.
The Patient Voiding Diary was used by participants (via the eDiary or paper Diary) to record the frequency of daily OAB symptoms including all micturitions, urgency, incontinence, and main reason for incontinence by selecting the respective box for each symptom occurring during the course of a given day and night.
Urine volume data were collected separately by patients using the Urine Volume component of the eDiary, or the paper Urine Volume Chart. The Urine Volume Chart is a tool used in clinical practice and clinical investigation to assess voiding functions over a 24-hour period and is regarded as a useful instrument in the investigation of patients with voiding symptoms. Urine volume may be collected during any one (1) of the 7 Diary Days prior to the visit, and it should be recorded for ˜24 hours starting from the time the patient gets up for the day and continues until the time the patient gets up for the day on the next day.
For the purpose of this study, the number of micturitions was defined as the number of times a patient has voided in the toilet as indicated on the Patient Voiding Diary. Average daily micturitions were calculated using the daily entries in the Patient Voiding Diary, which was completed over the 7 days prior to each study visit. Average daily number of micturitions were calculated as the total number of micturitions that occurred on a Complete Diary Day divided by the number of Complete Diary Days in the Patient Voiding Diary. A complete diary day required confirmation by the patient in the Patient Voiding Diary that all voids and leakages had been recorded for the diary day. Baseline was defined as the average number of micturitions occurring during the last evaluable diary prior to the Baseline Visit.
The number of UUI episodes was defined as the number of times a patient had checked “urge” as the reason for accidental urine leakage. Average daily UUI episodes at each study visit were calculated in the same manner as described above for the micturition endpoint. The UUI endpoint were analyzed using only OAB Wet patients.
For the analysis of the co-primary endpoints (change from baseline in average number of daily micturitions at Week 12 and change from baseline in average number of daily urge urinary incontinence episodes at Week 12, and placebo adjustment of each), a mixed model for repeated measure (MMRM) with restricted maximum likelihood estimation was used. This model corrects for dropout and accounts for the fact that measurements taken on the same patient over time tend to be correlated by using all available information on patients within the same covariate set to derive an estimate of the treatment effect for a dropout-free population. The analysis model for each efficacy endpoint includes terms for treatment, visit, OAB Type (Wet vs Dry), Sex (Female vs Male), Region (US vs Rest of World), baseline score, and interaction of visit by treatment.
Primary inferences were drawn from treatment differences for the changes from baseline derived from the MMRM models at Week 12. As part of secondary objectives, the treatment differences for each post baseline visit were also derived using the same MMRM model. […]

[1] = 50% Total Incontinence Responders, Week 2
[2] = 50% Total Incontinence Responders, Week 4
[3] = 50% Total Incontinence Responders, Week 8
[4] = 50% Total Incontinence Responders, Week 12
[5] = Cox model with sex as covariate, >1 = more treated subjects attain reduction
[6] = Dry population, baseline to Week 2

Cc1ccc(O)c([C@H](CCN(C(C)C)C(C)C)c2ccccc2)c1 [Tolterodine ER, tolterodine, reference compound]
Average Volume Voided per Micturition, Mean (SD) [1]: 167.1 (75.27) | Average daily number of urgency episodes, Mean (SD) [1]: 5.68 (3.690) | Change from Baseline in Average Daily Number of Urgency Episodes, LS Mean (SE) [1]: −2.1 (0.17) | Change from Baseline in Average Volume Voided per Micturition, LS Mean [1]: 16.9 (4.12) | Change from baseline in Percent Dry Diary Days, LS Mean [1]: 23.9 (2.33) Percent | Percent Dry Diary Days, Mean (SD) [1]: 28.44 (35.758) Percent | Average Volume Voided per Micturition, Mean (SD) [2]: 171.3 (73.88) | Average daily number of urgency episodes, Mean (SD) [2]: 5.18 (3.663) | Change from Baseline in Average Daily Number of Urgency Episodes, LS Mean (SE) [2]: −2.6 (0.18) | Change from Baseline in Average Volume Voided per Micturition, LS Mean [2]: 16.3 (4.38) | Change from baseline in Percent Dry Diary Days, LS Mean [2]: 32.6 (2.69) Percent | Percent Dry Diary Days, Mean (SD) [2]: 36.82 (40.267) Percent | Average Volume Voided per Micturition, Mean (SD) [3]: 177.7 (76.78) | Average daily number of urgency episodes, Mean (SD) [3]: 4.68 (3.707) | Change from Baseline in Average Daily Number of Urgency Episodes, LS Mean (SE) [3]: −3.1 (0.21) | Change from Baseline in Average Volume Voided per Micturition, LS Mean [3]: 24.8 (4.56) | Change from baseline in Percent Dry Diary Days, LS Mean [3]: 40.0 (2.76) Percent | Percent Dry Diary Days, Mean (SD) [3]: 44.86 (40.529) Percent | Average Volume Voided per Micturition, Mean (SD) [4]: 175.4 (77.58) | Average daily number of urgency episodes, Mean (SD) [4]: 4.02 (3.539) | Change from Baseline in Average Daily Number of Urgency Episodes, LS Mean (SE) [4]: −3.6 (0.22) | Change from Baseline in Average Volume Voided per Micturition, LS Mean [4]: 21.1 (4.74) | Change from baseline in Percent Dry Diary Days, LS Mean [4]: 49.7 (2.68) Percent | Percent Dry Diary Days, Mean (SD) [4]: 55.43 (37.734) Percent | Average Volume Voided per Micturition, Mean (SD) (75% UUI Responders, Week 2): 170.6 (77.20) | Average daily number of urgency episodes, Mean (SD) (75% UUI Responders, Week 2): 5.37 (3.577) | Change from Baseline in Average Volume Voided per Micturition, LS Mean (75% UUI Responders, Week 2): 17.5 (4.96) | Change from baseline in average daily number of urgency episodes, LS Mean (75% UUI Responders, Week 2): −2.3 (0.21) | Average Volume Voided per Micturition, Mean (SD) (75% UUI Responders, Week 4): 174.8 (73.04) | Average daily number of urgency episodes, Mean (SD) (75% UUI Responders, Week 4): 4.93 (3.675) | Change from Baseline in Average Volume Voided per Micturition, LS Mean (75% UUI Responders, Week 4): 16.2 (5.27) | Change from baseline in average daily number of urgency episodes, LS Mean (75% UUI Responders, Week 4): −2.8 (0.23) | Average Volume Voided per Micturition, Mean (SD) (75% UUI Responders, Week 8): 182.1 (77.27) | Average daily number of urgency episodes, Mean (SD) (75% UUI Responders, Week 8): 4.42 (3.677) | Change from Baseline in Average Volume Voided per Micturition, LS Mean (75% UUI Responders, Week 8): 26.1 (5.51) | Change from baseline in average daily number of urgency episodes, LS Mean (75% UUI Responders, Week 8): −3.3 (0.25) | Average Volume Voided per Micturition, Mean (SD) (75% UUI Responders, Week 12): 177.3 (77.70) | Average daily number of urgency episodes, Mean (SD) (75% UUI Responders, Week 12): 3.67 (3.542) | Change from Baseline in Average Volume Voided per Micturition, LS Mean (75% UUI Responders, Week 12): 19.1 (5.83) | Change from baseline in average daily number of urgency episodes, LS Mean (75% UUI Responders, Week 12): −3.9 (0.27) | Daily Urgency Episodes: Reduction from Baseline at Week 12, LS Mean (Age ≥65 years): −2.1 | Daily Urgency Episodes: Reduction from Baseline at Week 12, LS Mean (Age ≥75 years): −2.4 | Daily Urgency Episodes: Reduction from Baseline at Week 12, LS Mean (All patients): −2.5 | Patients with 100% Reduction in UUI from Baseline to Week 12, Unadjusted n (%) (Baseline Number of UUI <3): 62 (33.2) n (%) | Patients with at Least 75% Reduction in UUI from Baseline to Week 12, Unadjusted n (%) (Baseline Number of UUI <3): 98 (52.4) n (%) | Patients with 100% Reduction in UUI from Baseline to Week 12, Adjusted n (%) (Baseline Number of UUI <3): 54 (29.0) n (%) | Patients with at Least 75% Reduction in UUI from Baseline to Week 12, Adjusted n (%) (Baseline Number of UUI <3): 91 (48.4) n (%) | 75% UUI responders, Active-Placebo CMH Difference (Baseline Number of UUI <3): 10.1 | 100% UUI responders, Active-Placebo CMH Difference (Baseline Number of UUI <3): 1.5 | Patients with 100% Reduction in UUI from Baseline to Week 12, Unadjusted n (%) (Baseline Number of UUI ≥3): 23 (17.4) n (%) | Patients with at Least 75% Reduction in UUI from Baseline to Week 12, Unadjusted n (%) (Baseline Number of UUI ≥3): 54 (40.9) n (%) | Patients with 100% Reduction in UUI from Baseline to Week 12, Adjusted n (%) (Baseline Number of UUI ≥3): 13 (9.6) n (%) | Patients with at Least 75% Reduction in UUI from Baseline to Week 12, Adjusted n (%) (Baseline Number of UUI ≥3): 44 (33.7) n (%) | 75% UUI responders, Active-Placebo CMH Difference (Baseline Number of UUI ≥3): 8.4 | 100% UUI responders, Active-Placebo CMH Difference (Baseline Number of UUI ≥3): 2.6 | Hazard Ratio, 50% reduction in urgency episodes, Compared to Placebo Using Proportional Hazards [5]: 1.225 | Hazard Ratio, 100% reduction in UUI episodes, Compared to Placebo Using Proportional Hazards [5]: 1.141 | Urgency, Change from Baseline LS Mean (Dry population, Age <65): −2.3 (57) | Urgency, LS Mean Difference active - Placebo (Dry population, Age <65): −0.8 | Urgency, Change from Baseline LS Mean (Dry population, Age ≥65): −1.5 (35) | Urgency, LS Mean Difference active - Placebo (Dry population, Age ≥65): 0.2 | Average daily number of urgency episodes, Mean (SD) (Dry population, Week 2): 6.87 (4.260) | Change from baseline in average daily number of urgency episodes, LS Mean (Dry population, Week 2): −1.4 (0.27) | Urgency episodes, Active - Placebo LS Mean Difference (Dry population, Week 2): −0.6 (0.37) | Average daily number of urgency episodes, Mean (SD) (Dry population, Week 4): 7.03 (4.865) | Change from baseline in average daily number of urgency episodes, LS Mean (Dry population, Week 4): −1.6 (0.29) | Urgency episodes, Active - Placebo LS Mean Difference (Dry population, Week 4): −0.7 (0.40) | Average daily number of urgency episodes, Mean (SD) (Dry population, Week 8): 6.25 (4.957) | Change from baseline in average daily number of urgency episodes, LS Mean (Dry population, Week 8): −2.2 (0.34) | Urgency episodes, Active - Placebo LS Mean Difference (Dry population, Week 8): −1.0 (0.46) | Average daily number of urgency episodes, Mean (SD) (Dry population, Week 12): 6.56 (5.480) | Change from baseline in average daily number of urgency episodes, LS Mean (Dry population, Week 12): −2.0 (0.36) | Urgency episodes, Active - Placebo LS Mean Difference (Dry population, Week 12): −0.4 (0.49) | Patients with at Least 50% Reduction in Urgency Episodes, Adjusted (%) [6]: 16.3% | Patients with at Least 50% Reduction in Urgency Episodes, Adjusted n [6]: 16 | Patients with at Least 50% Reduction in Urgency Episodes, Unadjusted (%) [6]: 16.3% | Patients with at Least 50% Reduction in Urgency Episodes, Unadjusted n [6]: 16
